Source: patent US20260042802A1, “POLYPEPTIDE AND USE THEREOF” (priority 2024, published 2026)

Test system: mouse acetate acid writhing model
Assay: Mouse acetate acid writhing model
Assay type: in vivo, C57BL/6 mice
Details: Diclofenac Sodium Group, 30 mg/kg i.p. once daily for 7 days; 8 mice
Source text: Seventy SPF-grade healthy C57BL/6 mice, half male and half female, weighing 22-25 g and 8-10 weeks old, are randomly selected. Seventy C57BL/6 mice are weighed and numbered in ascending order of body weight (No. S1-S70). The mice are randomly divided into seven groups in terms of the randomized numerical table method, which are the saline group and the experimental groups, among which the experimental groups include the PPN-01 group, the PPN-04 group, the PPN-06 group, the PPN-11 group, the PPN-12 group, and the PPN-16 group. The dosing concentration (i.e., the concentration of added polypeptides PPN-01, PPN-04, PPN-06, PPN-11, PPN-12, and PPN-16) in each group is 10 mg/kg, with 10 mice in each group.
(§1) Saline Group: 10 healthy mice are routinely reared for one week; the saline is intraperitoneally injected once daily at a concentration of 10 ml/kg for 7 consecutive days; 15 min after the last injection is finished, 0.7% glacial acetic acid (10 ml/kg) is intraperitoneally injected; and each mouse is observed for their writhing behaviors.
Experimental Group: 10 healthy mice are routinely reared for one week; 10 ml/kg of different polypeptides are injected intraperitoneally at a concentration of 0.1 mL/10 g once daily for 7 consecutive days; 15 min after the last injection is finished, 0.7% glacial acetic acid (10 ml/kg) is intraperitoneally injected; and each mouse is observed for their behaviors in writhing.
During the above experiments, the time of first writhing (writhing latency) and the number of writhing in each mouse within 15 min are recorded immediately after the injection of glacial acetic acid solution in each group of mice. When behavioral responses such as inward concavity of the abdomen, extension of the torso and hind limbs, and elevation of the buttocks occur, it is considered to be a complete writhing response, and the results are shown in Table 3 and FIG. 6.
Forty SPF-grade healthy C57BL/6 mice, half male and half female, weighing 22-25 g and 8-10 weeks old, are randomly selected. Forty C57BL/6 mice are weighed and numbered in ascending order of body weight (No. 1 to No. 40). The mice are randomly divided into five groups according to the randomized numerical table method, namely, the saline group, the low-concentration group (2.5 mg/kg), the medium-concentration group (10 mg/kg), the high-concentration group (40 mg/kg), and the diclofenac sodium group (30 mg/kg), with eight mice in each group.
as §1, with “Group: 8” for “Group: 10”, “their behaviors in writhing. […]” for “their writhing behaviors.”

O=C(O)Cc1ccccc1Nc1c(Cl)cccc1Cl [Diclofenac Sodium, diclofenac sodium, reference compound]
Inhibiting Rate (writhing): 77.6%
